This note sets out measurements from patent US7897349B2, “Macrophage migration inhibitory factor (MIF) as marker for urological inflammatory disease” (The United States of America as represented by the …, priority 2003, dated 2011).

In assay [1] the test system is prostate and bladder. The source says: In CPPS, prostatic inflammation is suspected to result in referred visceral pain and urodynamic changes. Therefore, we established a model of prostatitis that would allow the study of histological, molecular and physiological changes in the bladder and the prostate, in an effort to correlate it to visceral referred pain.
In assay [2] the test system is bladder, lumbosacral spinal cord, DRG and MPG. The assay is described as follows: Intravesical bacterial endotoxin (LPS) model of bladder inflammation. The format is in vivo, rat. The source says:
Intravesical instillation of a bacterial endotoxin (lipopolysaccharide from E. Coli) has been documented to produce histological signs of bladder inflammation (Stein et al., J. Urol. 155: 1133-1138, 1996; Saban et al., Am. J Pathol. 160: 2095-2110, 2002; Wheeler et al., Eur. J Pharmacol. 417: 239-248, 2001). […] Therefore, we examined the effects of intravesical LPS on the levels of MIF and cox-2 on the bladder, lumbosacral spinal cord, DRG and MPG.

Assay [3] concerns bladder. The assay is described as follows: Substance P induced changes in CD74, CD44, p-ERK1/2 and MIF in the rat bladder. The format is in vivo. To be noted: subcutaneous SP 40 μg/kg; one hour. The procedure: The materials and methods are identical to Meyer-Siegler et al. (Journal of Urology 173: February, 2005), the disclosure of which is incorporated herein by reference. In anesthetized rats, the bladder was isolated by cutting the ureters and urine was replaced by saline as intraluminal fluid ([…]). One hour after subcutaneous SP (40 μg/kg) or saline administration, the ILF and bladder were collected. Bladder tissue was analyzed for CD74 and CD44 by immunohistochemistry. Western blot analysis determined the relative amounts of bladder tissue MIF, CD74, CD44, and p-ERK1/2. ILF immunoprecipitation followed by Western blot analysis was performed to identify an association of MIF with CD74 and/or CD44

Assay [4] deals with bladder and the prostate. The assay is described as follows: Systemic substance P (SP) model of neurogenic inflammation in the bladder and prostate. The format is in vivo, rat. From the text: We sought to determine if neurogenic inflammation alone (without producing damage or insult to the bladder epithelia, as was the case in the acid and LPS cystitis models) was also able to alter MIF levels in the bladder. In addition, we examined the prostate for signs of inflammation. Systemic injections of SP elicited plasma extravasation and edema (neurogenic inflammation) in the bladder and the prostate. We examined MIF and cox-2 to compare the results with our previous models of bladder injury (acid and LPS). In addition, we examined nerve growth factor (NGF) and the proto-oncogene c-fos.

Ends that are not written are not given here.

Turning to `C=O` [formalin], in assay [1] (animals receiving formalin in the prostate), the “MIF protein level in the bladder” value is given as “significantly reduced”. The “persistence of bladder hyperreflexia” value in assay [1] (chemical irritation of the prostate) was “at least 1 hour”. Further, the bladder intercontraction interval result in assay [1] (formalin injected into the prostate, maximal in first ten minutes, persisted 60 min) was “significant decrease”.
Take lipopolysaccharide from E. Coli [LPS]: the “histological changes of the bladder” value in assay [2] (intravesical LPS) is listed as “marked histological changes indicative of cystitis”. Further, the “MIF protein and mRNA in all the tissues, including the bladder” value in assay [2] (intravesical LPS treated rats) is listed as “significant increases”.
For “Substance P (RPKPQQFFGLM-NH2; ends and bridges not checked; UniProt P20366 58-68, looked up) [SP, tachykinin; systemic injection used as model of neurogenic inflammation]”, in assay [3], the “CD74 and CD44 bladder immunostaining” value is reported as “increased”; the “MIF release from the bladder” value is recorded as “significant MIF release”; the “total bladder CD74 protein and mRNA, intracellular domain CD44, p-ERK1/2 and soluble CD44 in the ILF” value is reported as “increased”. Further, the “cox-2 and c-fos levels in the bladder and the prostate” value in assay [4] (SP group) is reported as “significantly elevated”. The “MIF levels in the urine and serum” value in assay [4] (SP treated animals with isolated bladders) was “significantly increased”. Further, the “content of MIF in bladders and prostates” value in assay [4] (SP treated compared to saline treated) is “marked decrease”. Moreover, the “edema in the lamina propria of the bladder (Mean)” value in assay [4] (SP treated rats compared to saline treated rats, p<0.05) is on record as 2.69±0.1. For the same compound, in assay [4] (SP treated rats, not elevated in the bladder), the “NGF levels in the prostate and the urine” value was “significantly elevated”.
